Experimental data from PMC11671585, “Deciphering the molecular basis of lipoprotein recognition and transport by LolCDE” (Signal Transduction and Targeted Therapy, 2024).

Target: T1, LolCDE (LolCD^E171QE) (Escherichia coli, UniProt P75957, E171Q)
T1 construct: gene lolD; full complex LolC, LolD dimer, LolE; 8xHis tag at C terminus of LolD; expressed in E. coli C43 (DE3); reconstituted in MSP1D1 nanodiscs with E. coli polar lipids; with Lipoprotein-releasing system transmembrane protein LolC; Lipoprotein-releasing system transmembrane protein LolE
Assay: cryo-EM structure, […] Å, nanodiscs
Type: binding
Settings: endogenous ATP with Mg2+, no nucleotide added; both catalytic sites of the LolD dimer; catalytically inactive mutant; pH 7.8

T1 sequence (P75957 whole entry E171Q): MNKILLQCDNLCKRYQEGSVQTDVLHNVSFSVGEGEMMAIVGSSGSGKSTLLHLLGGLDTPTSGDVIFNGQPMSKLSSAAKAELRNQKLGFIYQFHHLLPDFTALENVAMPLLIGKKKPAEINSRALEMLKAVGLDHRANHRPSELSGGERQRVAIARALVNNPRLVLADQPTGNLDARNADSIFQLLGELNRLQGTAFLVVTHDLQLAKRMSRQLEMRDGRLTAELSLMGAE
T1 sequence (P75958 2-414, further chain): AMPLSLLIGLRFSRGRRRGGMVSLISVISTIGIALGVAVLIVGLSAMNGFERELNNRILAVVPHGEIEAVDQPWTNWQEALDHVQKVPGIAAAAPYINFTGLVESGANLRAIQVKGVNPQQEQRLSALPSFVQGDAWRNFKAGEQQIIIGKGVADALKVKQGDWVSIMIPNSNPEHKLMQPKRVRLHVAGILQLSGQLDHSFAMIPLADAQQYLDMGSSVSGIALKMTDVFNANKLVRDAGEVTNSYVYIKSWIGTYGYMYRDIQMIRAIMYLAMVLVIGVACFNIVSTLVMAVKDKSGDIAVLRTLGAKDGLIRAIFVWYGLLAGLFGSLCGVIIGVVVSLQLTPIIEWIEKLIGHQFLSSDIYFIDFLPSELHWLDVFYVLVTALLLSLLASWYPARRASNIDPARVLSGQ
T1 sequence (P0ADC3 whole entry, further chain): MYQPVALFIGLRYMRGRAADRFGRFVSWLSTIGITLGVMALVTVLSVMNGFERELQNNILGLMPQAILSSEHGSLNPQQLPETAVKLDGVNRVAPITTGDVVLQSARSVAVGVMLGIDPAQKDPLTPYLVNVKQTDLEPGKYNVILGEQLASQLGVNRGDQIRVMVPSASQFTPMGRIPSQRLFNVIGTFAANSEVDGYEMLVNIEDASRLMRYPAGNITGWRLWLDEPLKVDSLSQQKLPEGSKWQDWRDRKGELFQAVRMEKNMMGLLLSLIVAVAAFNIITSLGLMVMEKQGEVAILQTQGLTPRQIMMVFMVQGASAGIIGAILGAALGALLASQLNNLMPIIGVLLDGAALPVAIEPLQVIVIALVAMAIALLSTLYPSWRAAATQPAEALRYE

Q: For `Nc1ncnc2c1ncn2[C@@H]1O[C@H](COP(=O)(O)OP(=O)(O)OP(=O)(O)O)[C@@H](O)[C@H]1O` [ATP], which “cryo-EM structure, 3.2 Å, nanodiscs” value is on record?
A: additional cryo-EM densities were observed in the catalytic pockets of LolD, which were identified as ATP
